# Laboratory results taken from patent US9382226B2, “Aldosterone synthase inhibitors” (Merck Sharp & Dohme Corp., priority 2010, dated 2016).
# Assays:
# human CYP11B1 = target: T1, human CYP11B1 (Homo sapiens, UniProt P15538); assay: V79-Human-CYP11B1 cell assay (cortisol formation, HTRF); assay type: cell-based; conditions: V79 cells stably expressing human CYP11B1; substrate 250 nM 11-deoxycortisol; 3 hours
# T1 construct: expressed in transfected cells; host or cells: V79 cells (clone V79-hCYP11B1-8C7)
# T1 sequence (P15538 25-503): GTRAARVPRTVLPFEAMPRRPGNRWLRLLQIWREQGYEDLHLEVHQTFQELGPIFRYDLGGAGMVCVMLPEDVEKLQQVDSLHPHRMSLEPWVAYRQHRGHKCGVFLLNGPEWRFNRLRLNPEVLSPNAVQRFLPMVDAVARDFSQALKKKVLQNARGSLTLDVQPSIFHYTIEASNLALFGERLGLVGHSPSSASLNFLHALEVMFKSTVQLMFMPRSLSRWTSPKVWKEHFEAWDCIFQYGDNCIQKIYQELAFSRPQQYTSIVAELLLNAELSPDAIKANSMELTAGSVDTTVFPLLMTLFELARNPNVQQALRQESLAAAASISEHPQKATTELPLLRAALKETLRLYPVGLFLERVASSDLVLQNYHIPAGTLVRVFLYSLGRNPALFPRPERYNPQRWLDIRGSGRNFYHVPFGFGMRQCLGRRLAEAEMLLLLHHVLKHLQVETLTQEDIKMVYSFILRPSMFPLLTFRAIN
# Protocol: Methods for V79-Human-CYP11B2 and V79-Human-CYP11B1 Assays: V79 cell lines stably expressing the either the human CYP11B2 or the human CYP11B1 enzyme were generated using a standard transfection protocol. V79 cells were transfected with plasmids pTriEx3-Hygro-hCyp11B2 or pTriEx3-Hygro-hCyp11B1 using Lipofectamine2000 reagent. V79 cells that stably express the human CYP11B2 or human CYP11B1 enzyme were selected for and maintained in DMEM supplemented with 10% FBS and 400 μg/mL hygromycin for ˜2 weeks. Single cell clones were generated by […] in DMEM supplemented with 10% FBS and 400 μg/mL hygromycin until single colonies were obtained. […] For testing of inhibitors, cells were harvested at 80% confluency with 0.5% Trypsan-EDTA, washed once in PBS, and reconstituted in DMEM 0.1% BSA media at a cell concentration of 400,000 cells/mL. 25 μl of cells were added to a 384 well tissue culture treated plate and mixed with 0.25 μl of inhibitor or DMSO (1% final DMSO concentration) for 1 hour at 37° C., 5% CO2. […] The reaction was carried out for 3 hours at 37° C., 5% CO2 and was stopped by harvesting the supernatants. The amount of product in the supernatant (aldosterone for CYP11B2 assay and cortisol for the CYP11B1 assay) was measured using HTRF-based assay kit (Aldosterone HTRF-CisBio#64ALDPEB, Cortisol HTRF-CisBio #63IDC002-CORT). IC50's for the inhibitor were determined by plotting the amount of product formed against the concentration of inhibitor using sigmoidal dose-response curve (variable slope) fit in GraphPad.
# human CYP11B2 = target: T2, human CYP11B2 (Homo sapiens, UniProt P19099); assay: V79-Human-CYP11B2 cell assay (aldosterone formation, HTRF); assay type: cell-based; conditions: V79 cells stably expressing human CYP11B2; substrate 125 nM 11-deoxycorticosterone; 3 hours
# T2 construct: expressed in transfected cells; host or cells: V79 cells (clone V79-hCYP11B2-CLE9)
# T2 sequence (P19099 25-503): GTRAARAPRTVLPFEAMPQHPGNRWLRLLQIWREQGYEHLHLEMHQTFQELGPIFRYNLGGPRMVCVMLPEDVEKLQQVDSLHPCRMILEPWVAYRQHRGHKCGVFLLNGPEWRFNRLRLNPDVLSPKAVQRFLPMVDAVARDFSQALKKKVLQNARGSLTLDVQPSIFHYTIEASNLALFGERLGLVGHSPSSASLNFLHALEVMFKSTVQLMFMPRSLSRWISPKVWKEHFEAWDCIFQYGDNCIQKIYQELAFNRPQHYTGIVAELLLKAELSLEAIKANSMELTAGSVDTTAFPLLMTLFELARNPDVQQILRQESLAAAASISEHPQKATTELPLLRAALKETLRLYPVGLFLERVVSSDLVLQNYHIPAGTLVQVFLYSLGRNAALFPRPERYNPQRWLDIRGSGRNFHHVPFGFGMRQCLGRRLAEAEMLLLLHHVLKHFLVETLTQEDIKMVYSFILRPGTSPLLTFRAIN
# Protocol: Methods for V79-Human-CYP11B2 and V79-Human-CYP11B1 Assays: V79 cell lines stably expressing the either the human CYP11B2 or the human CYP11B1 enzyme were generated using a standard transfection protocol. V79 cells were transfected with plasmids pTriEx3-Hygro-hCyp11B2 or pTriEx3-Hygro-hCyp11B1 using Lipofectamine2000 reagent. V79 cells that stably express the human CYP11B2 or human CYP11B1 enzyme were selected for and maintained in DMEM supplemented with 10% FBS and 400 μg/mL hygromycin for ˜2 weeks. Single cell clones were generated by […] in DMEM supplemented with 10% FBS and 400 μg/mL hygromycin until single colonies were obtained. Clones V79-hCYP11B2-CLE9 and V79-hCYP11B1-8C7, were determined to produce the most aldosterone and cortisol, respectively, and were selected for inhibitor screening. For testing of inhibitors, cells were harvested at 80% confluency with 0.5% Trypsan-EDTA, washed once in PBS, and reconstituted in DMEM 0.1% BSA media at a cell concentration of 400,000 cells/mL. 25 μl of cells were added to a 384 well tissue culture treated plate and mixed with 0.25 μl of inhibitor or DMSO (1% final DMSO concentration) for 1 hour at 37° C., 5% CO2. After pre-incubation with inhibitor, the reaction was initiated by adding 5 μl of substrate (final concentration of 125 nM 11-deoxycorticosterone for the CYP11B2 assay or 250 nM 11-deoxycortisol for the CYP11B1 assay). The reaction was carried out for 3 hours at 37° C., 5% CO2 and was stopped by harvesting the supernatants. The amount of product in the supernatant (aldosterone for CYP11B2 assay and cortisol for the CYP11B1 assay) was measured using HTRF-based assay kit (Aldosterone HTRF-CisBio#64ALDPEB, Cortisol HTRF-CisBio #63IDC002-CORT). IC50's for the inhibitor were determined by plotting the amount of product formed against the concentration of inhibitor using sigmoidal dose-response curve (variable slope) fit in GraphPad.
SMILES,IC50 (human CYP11B1) [nM],IC50 (human CYP11B2) [nM]
"Cn1c(-c2cccnc2)nc2ccc(Cl)cc21 [Example 233, 6-chloro-1-methyl-2-(pyridin-3-yl)-1H-benzimidazole]",270,1.15
"Fc1cncc(-c2nc3cc(F)c(F)cc3n2OCc2ccccc2)c1 [Example 373, 1-(benzyloxy)-5,6-difluoro-2-(5-fluoropyridin-3-yl)-1H-benzimidazole]",71.5,0.5
"COC(C)(C)c1cncc(-c2nc3cc(F)c(F)cc3n2C2CC2)c1 [Example 39, 1-cyclopropyl-5,6-difluoro-2-[5-(2-methoxypropan-2-yl)pyridin-3-yl]-1H-benzimidazole]",3.4,0.3
"Fc1cc2nc(-c3cncc4ccccc34)n(C3CC3)c2cc1Cl [Example 131, 4-(6-chloro-1-cyclopropyl-5-fluoro-1H-benzimidazol-2-yl)isoquinoline]",122,0.126
"Fc1cncc(-c2nc3ccc(Br)cc3n2C2CC2)c1 [Example 172, 6-bromo-1-cyclopropyl-2-(5-fluoropyridin-3-yl)-1H-benzimidazole]",946,3.55
"COc1c(C)cncc1-c1nc2cc(F)c(F)cc2n1C1CC1 [Example 226, 1-cyclopropyl-5,6-difluoro-2-(4-methoxy-5-methylpyridin-3-yl)-1H-benzimidazole]",790,1.12
"Cc1cncc(-c2nc3ccc(F)c(F)c3n2C2CC2)c1C [Example 282, 1-cyclopropyl-2-(4,5-dimethylpyridin-3-yl)-6,7-difluoro-1H-benzimidazole]",295,0.417
"Cc1cncc(-c2nc3cc(F)c(F)cc3n2C)c1 [Example 212, 5,6-difluoro-1-methyl-2-(5-methylpyridin-3-yl)-1H-benzimidazole]",149,0.585
"Fc1cc2nc(-c3cccnc3)n(C3CC3)c2cc1Cl [Example 132, 6-chloro-1-cyclopropyl-5-fluoro-2-(pyridin-3-yl)-1H-benzimidazole]",10000,0.597
"Cn1c(-c2cccnc2)nc2ccc(C#N)cc21 [Example 99, 1-methyl-2-(pyridin-3-yl)-1H-benzimidazole-6-carbonitrile]",98,0.316
"Fc1ccc2nc(-c3cncc4ccccc34)n(C3CC3)c2c1 [Example 16, 4-(1-cyclopropyl-6-fluoro-1H-benzimidazol-2-yl)isoquinoline]",59.2,0.1
"Cn1c(-c2cccnc2)nc2cc(F)ccc21 [Example 4, 5-fluoro-1-methyl-2-(pyridin-3-yl)-1H-benzimidazole]",4080,26
"N#Cc1ccc2nc(-c3cccnc3)n(C3CC3)c2c1 [Example 75, 1-cyclopropyl-2-(pyridin-3-yl)-1H-benzo[d]imidazole-6-carbonitrile]",374,1.23
"Cn1c(-c2cncc3ccccc23)nc2cc(F)cc(F)c21 [Example 256, 4-(5,7-difluoro-1-methyl-1H-benzimidazol-2-yl)isoquinoline]",490,0.346
"Cc1cncc(-c2nc3cc(F)c(Cl)cc3n2C2CC2)c1 [Example 135, 6-chloro-1-cyclopropyl-5-fluoro-2-(5-methylpyridin-3-yl)-1H-benzimidazole]",602,0.226
"COC(C)(C)c1cncc(-c2nc3ccc(F)cc3n2C2CC2)c1 [Example 51, 1-cyclopropyl-6-fluoro-2-[5-(2-methoxypropan-2-yl)pyridin-3-yl]-1H-benzimidazole]",4.7,0.2
"Fc1ccc2nc(-c3cncc4ccccc34)n(C3CC3)c2c1F [Example 279, 4-(1-cyclopropyl-6,7-difluoro-1H-benzimidazol-2-yl)isoquinoline]",206,0.282
"COc1cncc(-c2nc3ccc(Cl)cc3n2C)c1 [Example 232, 6-chloro-2-(5-methoxypyridin-3-yl)-1-methyl-1H-benzimidazole]",162,0.2
"Fc1cncc(-c2nc3cc(F)c(Cl)cc3n2C2CC2)c1 [Example 129, 6-chloro-1-cyclopropyl-5-fluoro-2-(5-fluoropyridin-3-yl)-1H-benzimidazole]",161,0.81
"Fc1cc2nc(-c3cncc4ccccc34)n(C3CC3)c2cc1F [Example 32, 4-(1-cyclopropyl-5,6-difluoro-1H-benzimidazol-2-yl)isoquinoline]",9.6,0.1
"CC(C)(O)c1cncc(-c2nc3cc(F)c(F)cc3n2C2CC2)c1 [Example 38, 2-[5-(1-Cyclopropyl-5,6-difluoro-1H-benzimidazol-2-yl)pyridin-3-yl]propan-2-ol]",42,0.3
Cn1c(-c2cncc3ccccc23)nc2ccc(F)c(F)c21 [Example 267],206,0.151
"Fc1ccc2c(c1)nc(-c1cccnc1)n2C1CC1 [Example 17, 1-cyclopropyl-5-fluoro-2-(pyridin-3-yl)-1H-benzimidazole]",3980,28
"Clc1ccc2nc(-c3cccnc3)n(C3CC3)c2c1 [Example 250, 6-chloro-1-cyclopropyl-2-(pyridin-3-yl)-1H-benzimidazole]",425,1.59
"CCn1c(-c2cncc3ccccc23)nc2cc(F)ccc21 [Example 26, 4-(1-ethyl-5-fluoro-1H-benzimidazol-2-yl)isoquinoline]",304,3.8
"Cc1cncc(-c2nc3ccc(F)c(F)c3n2C)c1C [Example 268, 2-(4,5-dimethylpyridin-3-yl)-6,7-difluoro-1-methyl-1H-benzimidazole]",117,0.234
"Cc1ccncc1-c1nc2ccc(F)c(F)c2n1C1CC1 [Example 284, 1-cyclopropyl-6,7-difluoro-2-(4-methylpyridin-3-yl)-1H-benzimidazole]",300,1.35
